Measured values taken from PMC9867837 (Cancer letters, 2022).

How the values were obtained:
[1] = target: Stat3 (Homo sapiens, UniProt P40763); assay: Immunofluorescence confocal microscopy of Stat3 localization; format: cell-based; parameters: endogenous in cells; settings: MDA-MB-231 and MDA-MB-468, 1 or 2 μM H182, 12 h
Method: These studies were performed as previously reported. Details are presented in Supplementary Information, “Methods”.
During confluence of cultured cells, the cell-to-cell adhesion and cadherin engagement trigger increased Tyr705Stat3 phosphorylation in a variety of cell lines. To investigate the impact of cell-to-cell adhesion and cadherin engagement, parallel studies were conducted in which cells in culture were untreated or treated with 1 or 2 μM H182 for 0.5–48 h, and whole-cell lysates prepared and immunoprobed for pTyr705Stat3. […] After 48-h incubation, the cell confluency of the DMSO-treated samples reached to around 60% for MDA-MB-468 cells and 80% for MDA-MB-231 cells. […] In the untreated cells, Stat3 (red punctate) staining was predominantly localized in the nucleus of the tumor cells, with weak presence in the cytoplasm (Fig. 4F, 0, Stat3, red merged with blue DAPI nuclear staining). […] Total Stat3 protein levels in all of these studies were unchanged, and GAPDH, tubulin or β-actin levels show equal protein loading. The percent changes induced by H182 treatment on Stat3 DNA-binding activity and phosphorylation in the treated cells are shown.
These studies were performed as previously reported . […]

[2] = system: MDA-MB-231 cells; assay: Annexin V/propidium iodide staining with flow cytometry; format: cell-based, human; settings: 3 μM H182 for 3 h
Method: For apoptosis analysis, annexin V/propidium iodide (PI) staining was performed. Details are presented in Supplementary Information, “Methods”. […]
(§1) software and Prism GraphPad software (San Diego, CA), using the one-site model. Control experiments were carried out by titration H182 into buffer, buffer into Stat3, and buffer into buffer. The three controls were used as a composite for the ITC experiment to subtract the heat of dilution and background noise from […]
(§2) 1.2.11. Wound healing assay for migration
(§3) Studies were performed as previously reported [1 -3]. Briefly, cells were cultured in 6-well plates, and the monolayer of cells was scratched with a p10 pipet tip. Subsequently, fresh medium containing inhibitors or DMSO (control) was added, and then immediately, cells were imaged with a Canon Powershot A640 digital camera under a phase contrast with the Zeiss Axiovert 200 inverted microscope at 10X magnification and noted as the zero time-point. Following culture for 22 h to allow cells to migrate into the denuded area, the culture was then imaged again at the same field that was marked on the plate.
(§4) 1.2.12. Annexin V binding/apoptosis and flow cytometric analysis
(§5) For apoptosis analysis, annexin V/propidium iodide (PI) staining was performed. […] The annexin V- and/or PI-positive cells were analyzed by FACScan flow cytometer (BD Biosciences) and data was analyzed using FlowJo software. […]

[3] = system: MDA-MB-231 cells; assay: Wound healing (scratch) assay for migration; format: cell-based, human; settings: one-time treatment, 22 h
Method: Studies were performed as previously reported. Details are presented in Supplementary Information, “Methods”. […]
as §1, §2, §3, §4, §5

Sequence of Stat3 (P40763 whole entry): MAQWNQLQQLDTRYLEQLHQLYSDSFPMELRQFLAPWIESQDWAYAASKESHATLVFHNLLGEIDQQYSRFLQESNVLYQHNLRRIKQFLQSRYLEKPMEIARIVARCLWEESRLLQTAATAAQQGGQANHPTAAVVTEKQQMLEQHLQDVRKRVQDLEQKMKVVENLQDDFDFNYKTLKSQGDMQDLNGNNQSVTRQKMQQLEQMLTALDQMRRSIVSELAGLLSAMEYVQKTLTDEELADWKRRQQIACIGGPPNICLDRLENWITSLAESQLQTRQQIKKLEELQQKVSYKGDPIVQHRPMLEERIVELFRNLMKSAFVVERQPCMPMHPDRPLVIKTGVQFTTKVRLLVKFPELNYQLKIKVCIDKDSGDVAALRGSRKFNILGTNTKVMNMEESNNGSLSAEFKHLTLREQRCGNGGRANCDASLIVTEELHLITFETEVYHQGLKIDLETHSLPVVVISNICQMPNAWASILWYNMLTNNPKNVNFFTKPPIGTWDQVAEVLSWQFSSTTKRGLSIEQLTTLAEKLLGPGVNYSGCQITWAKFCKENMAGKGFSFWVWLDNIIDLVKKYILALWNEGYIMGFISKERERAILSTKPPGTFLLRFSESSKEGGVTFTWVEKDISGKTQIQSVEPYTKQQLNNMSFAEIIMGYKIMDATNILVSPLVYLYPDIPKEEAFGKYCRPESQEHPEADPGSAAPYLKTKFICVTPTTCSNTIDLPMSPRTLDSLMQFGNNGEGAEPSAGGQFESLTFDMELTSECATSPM

Structure (SMILES): O=C([C@H]1CCN1S(=O)(=O)c1c(F)c(F)c(F)c(F)c1F)N(Cc1ccc(C2CCCCC2)cn1)c1ccc2c(=O)[nH]ncc2c1 [Compound H182]
- Effect on intracellular localization of Stat3 [1]: decreased nuclear Stat3 staining and Stat3 aggregation at the perinuclear region
- Annexin V/PI double-positive staining [2]: roughly 12%
- Effect on cell migration into the denuded area [3]: inhibited the cell migration
